Reference: patent US20230016424A1, “HYBRID AMIDE DERIVATIVES OF AMPHOTERICIN B” (The Board of Trustees of the University of Illinois, priority 2019, published 2023)

Test system: C. albicans SN250, C. albicans, C. krusei, C. glabrata, C. tropicalis, A. fumigatus 91, 1163, 1100
Test: Average MIC over the tested strains
Type: cell-based
Conditions: Table 7, C16 amide AmB variants

| Compound | MIC (Average Minimum Inhibition Concentration) [µM] |
| --- | --- |
| CC(NC(=O)C1C(O)CC2(O)CC(O)CC(O)C(O)CCC(O)CC(O)CC(=O)OC(C)C(C)C(O)C(C)C=CC=CC=CC=CC=CC=CC=CC(OC3OC(C)C(O)C(N)C3O)CC1O2)C(N)=O (stereo not shown) [GJ] | 0.336 |
| CCC(O)CNC(=O)C1C(O)CC2(O)CC(O)CC(O)C(O)CCC(O)CC(O)CC(=O)OC(C)C(C)C(O)C(C)C=CC=CC=CC=CC=CC=CC=CC(OC3OC(C)C(O)C(N)C3O)CC1O2 (mixture of isomers) [FX] | 0.313 |
| CC1C=CC=CC=CC=CC=CC=CC=CC(OC2OC(C)C(O)C(N)C2O)CC2OC(O)(CC(O)CC(O)C(O)CCC(O)CC(O)CC(=O)OC(C)C(C)C1O)CC(O)C2C(=O)NC1COCC1O (stereo not shown) [EU] | 0.500 |
| CC1C=CC=CC=CC=CC=CC=CC=CC(OC2OC(C)C(O)C(N)C2O)CC2OC(O)(CC(O)CC(O)C(O)CCC(O)CC(O)CC(=O)OC(C)C(C)C1O)CC(O)C2C(=O)NCCn1cncn1 (stereo not shown) [FY] | 0.316 |
| CC1C=CC=CC=CC=CC=CC=CC=CC(OC2OC(C)C(O)C(N)C2O)CC2OC(O)(CC(O)CC(O)C(O)CCC(O)CC(O)CC(=O)OC(C)C(C)C1O)CC(O)C2C(=O)N(CO)CCO (stereo not shown) [DW] | 0.419 |
| CC1C=CC=CC=CC=CC=CC=CC=CC(OC2OC(C)C(O)C(N)C2O)CC2OC(O)(CC(O)CC(O)C(O)CCC(O)CC(O)CC(=O)OC(C)C(C)C1O)CC(O)C2C(=O)NCCCCCO (stereo not shown) [FF] | 0.531 |
| CC(O)CNC(=O)C1C(O)CC2(O)CC(O)CC(O)C(O)CCC(O)CC(O)CC(=O)OC(C)C(C)C(O)C(C)C=CC=CC=CC=CC=CC=CC=CC(OC3OC(C)C(O)C(N)C3O)CC1O2 (stereo not shown) [FJ] | 0.195 |
| CC1C=CC=CC=CC=CC=CC=CC=CC(OC2OC(C)C(O)C(N)C2O)CC2OC(O)(CC(O)CC(O)C(O)CCC(O)CC(O)CC(=O)OC(C)C(C)C1O)CC(O)C2C(=O)NCCS(C)(=O)=O (stereo not shown) [EE] | 0.422 |
| CC1C=CC=CC=CC=CC=CC=CC=CC(OC2OC(C)C(O)C(N)C2O)CC2OC(O)(CC(O)CC(O)C(O)CCC(O)CC(O)CC(=O)OC(C)C(C)C1O)CC(O)C2C(=O)NCC1OC(O)C(O)C(O)C1O (stereo not shown) [EF] | 0.430 |
| CC1C=CC=CC=CC=CC=CC=CC=CC(OC2OC(C)C(O)C(N)C2O)CC2OC(O)(CC(O)CC(O)C(O)CCC(O)CC(O)CC(=O)OC(C)C(C)C1O)CC(O)C2C(=O)NCCNS(C)(=O)=O (stereo not shown) [EO] | 0.469 |
| COC1OC(CO)C(O)C(NC(=O)C2C(O)CC3(O)CC(O)CC(O)C(O)CCC(O)CC(O)CC(=O)OC(C)C(C)C(O)C(C)C=CC=CC=CC=CC=CC=CC=CC(OC4OC(C)C(O)C(N)C4O)CC2O3)C1O (mixture of isomers) [FO] | 0.258 |
| CC1C=CC=CC=CC=CC=CC=CC=CC(OC2OC(C)C(O)C(N)C2O)CC2OC(O)(CC(O)CC(O)C(O)CCC(O)CC(O)CC(=O)OC(C)C(C)C1O)CC(O)C2C(=O)NCCCCO (stereo not shown) [EY] | 0.500 |
| CC1C=CC=CC=CC=CC=CC=CC=CC(OC2OC(C)C(O)C(N)C2O)CC2OC(O)(CC(O)CC(O)C(O)CCC(O)CC(O)CC(=O)OC(C)C(C)C1O)CC(O)C2C(=O)NC1CC1 (stereo not shown) [EI] | 0.438 |
| CC1C=CC=CC=CC=CC=CC=CC=CC(OC2OC(C)C(O)C(N)C2O)CC2OC(O)(CC(O)CC(O)C(O)CCC(O)CC(O)CC(=O)OC(C)C(C)C1O)CC(O)C2C(=O)NC1(C(N)=O)CNC1 (stereo not shown) [GG] | 0.328 |
| CC1C=CC=CC=CC=CC=CC=CC=CC(OC2OC(C)C(O)C(N)C2O)CC2OC(O)(CC(O)CC(O)C(O)CCC(O)CC(O)CC(=O)OC(C)C(C)C1O)CC(O)C2C(=O)NCCn1ncnn1 (stereo not shown) [DN] | 0.391 |
| CC1C=CC=CC=CC=CC=CC=CC=CC(OC2OC(C)C(O)C(N)C2O)CC2OC(O)(CC(O)CC(O)C(O)CCC(O)CC(O)CC(=O)OC(C)C(C)C1O)CC(O)C2C(=O)NCB(O)O (stereo not shown) [EG] | 0.430 |
| CC1C=CC=CC=CC=CC=CC=CC=CC(OC2OC(C)C(O)C(N)C2O)CC2OC(O)(CC(O)CC(O)C(O)CCC(O)CC(O)CC(=O)OC(C)C(C)C1O)CC(O)C2C(=O)NC1CC(N)C(O)C(O)C1O (stereo not shown) [FI] | 0.172 |
| CC1C=CC=CC=CC=CC=CC=CC=CC(OC2OC(C)C(O)C(N)C2O)CC2OC(O)(CC(O)CC(O)C(O)CCC(O)CC(O)CC(=O)OC(C)C(C)C1O)CC(O)C2C(=O)NCCOC(F)F (stereo not shown) [EW] | 0.500 |
| CC1C=CC=CC=CC=CC=CC=CC=CC(OC2OC(C)C(O)C(N)C2O)CC2OC(O)(CC(O)CC(O)C(O)CCC(O)CC(O)CC(=O)OC(C)C(C)C1O)CC(O)C2C(=O)NC1COC1 (stereo not shown) [DX] | 0.422 |
| O=CO [FA] | 0.516 |
| CC1C=CC=CC=CC=CC=CC=CC=CC(OC2OC(C)C(O)C(N)C2O)CC2OC(O)(CC(O)CC(O)C(O)CCC(O)CC(O)CC(=O)OC(C)C(C)C1O)CC(O)C2C(=O)NCCNC(=N)N (stereo not shown) [DV] | 0.406 |
| CC1C=CC=CC=CC=CC=CC=CC=CC(OC2OC(C)C(O)C(N)C2O)CC2OC(O)(CC(O)CC(O)C(O)CCC(O)CC(O)CC(=O)OC(C)C(C)C1O)CC(O)C2C(=O)NC1CCC(N)CC1 (stereo not shown) [DU] | 0.406 |
| CC1C=CC=CC=CC=CC=CC=CC=CC(OC2OC(C)C(O)C(N)C2O)CC2OC(O)(CC(O)CC(O)C(O)CCC(O)CC(O)CC(=O)OC(C)C(C)C1O)CC(O)C2C(=O)NCCOCCN (stereo not shown) [DP] | 0.391 |
| CC1C=CC=CC=CC=CC=CC=CC=CC(OC2OC(C)C(O)C(N)C2O)CC2OC(O)(CC(O)CC(O)C(O)CCC(O)CC(O)CC(=O)OC(C)C(C)C1O)CC(O)C2C(=O)NCC(O)C(O)C(O)C(O)CO (stereo not shown) [FW] | 0.313 |
| CC1C=CC=CC=CC=CC=CC=CC=CC(OC2OC(C)C(O)C(N)C2O)CC2OC(O)(CC(O)CC(O)C(O)CCC(O)CC(O)CC(=O)OC(C)C(C)C1O)CC(O)C2C(=O)NCCCNC(N)=O (stereo not shown) [EQ] | 0.484 |
| CC1C=CC=CC=CC=CC=CC=CC=CC(OC2OC(C)C(O)C(N)C2O)CC2OC(O)(CC(O)CC(O)C(O)CCC(O)CC(O)CC(=O)OC(C)C(C)C1O)CC(O)C2C(=O)NCCCO (stereo not shown) [GA] | 0.320 |
| CC1C=CC=CC=CC=CC=CC=CC=CC(OC2OC(C)C(O)C(N)C2O)CC2OC(O)(CC(O)CC(O)C(O)CCC(O)CC(O)CC(=O)OC(C)C(C)C1O)CC(O)C2C(=O)NCC1OC(n2cnc3c(=O)[nH]c(N)nc32)C(O)C1O (stereo not shown) [DM] | 0.391 |
| CC1C=CC=CC=CC=CC=CC=CC=CC(OC2OC(C)C(O)C(N)C2O)CC2OC(O)(CC(O)CC(O)C(O)CCC(O)CC(O)CC(=O)OC(C)C(C)C1O)CC(O)C2C(=O)NCCN1CCOC1=O (stereo not shown) [ER] | 0.484 |
| CC1C=CC=CC=CC=CC=CC=CC=CC(OC2OC(C)C(O)C(N)C2O)CC2OC(O)(CC(O)CC(O)C(O)CCC(O)CC(O)CC(=O)OC(C)C(C)C1O)CC(O)C2C(=O)NC1C(O)OC(CO)C(O)C1O (stereo not shown) [FL] | 0.227 |

Same assay, conditions: Table 12, C16 amides of C2'epiAmB

| Compound | Average MIC [µM] |
| --- | --- |
| CC1C=CC=CC=CC=CC=CC=CC=CC(OC2OC(C)C(O)C(N)C2O)CC2OC(O)(CC(O)CC(O)C(O)CCC(O)CC(O)CC(=O)OC(C)C(C)C1O)CC(O)C2C(=O)NC1CC1 (stereo not shown) [BV] | 3.063 |
| CNC(=O)C1C(O)CC2(O)CC(O)CC(O)C(O)CCC(O)CC(O)CC(=O)OC(C)C(C)C(O)C(C)C=CC=CC=CC=CC=CC=CC=CC(OC3OC(C)C(O)C(N)C3O)CC1O2 (stereo not shown) [BS] | 1.734 |
